In PubChem BioAssay (NCI):
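These data come from cells grown in 96-well plates and exposed to compound for 48 hours at five concentrations. TGI marks complete inhibition of growth.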

How the values were obtained:
Assay in all cases: inhibition of tumour cell growth, NCI panel, 48 h
[1] = tested on: SW-620 colon
[2] = tested on: SNB-19 CNS
[3] = tested on: TK-10 renal
[4] = tested on: A549 NSCLC
[5] = tested on: SF-539 CNS
[6] = tested on: KM12 colon
[7] = tested on: HCC-2998 colon
[8] = tested on: OVCAR-5 ovarian
[9] = tested on: PC-3 prostate
[10] = tested on: MALME-3M melanoma
[11] = tested on: UO-31 renal
[12] = tested on: EKVX NSCLC
[13] = tested on: HT29 colon
[14] = tested on: CAKI-1 renal
[15] = tested on: RXF 393 renal
[16] = tested on: SK-MEL-2 melanoma
[17] = tested on: MCF7 breast
[18] = tested on: COLO 205 colon
[19] = tested on: MDA-MB-435
[20] = tested on: A498 renal
[21] = tested on: ACHN renal
[22] = tested on: K-562 leukemia
[23] = tested on: MDA-MB-231 breast
[24] = tested on: OVCAR-3 ovarian
[25] = tested on: 786-0 renal
[26] = tested on: RPMI-8226 leukemia
[27] = tested on: SK-MEL-28 melanoma
[28] = tested on: MOLT-4 leukemia
[29] = tested on: HCT-116 colon
[30] = tested on: SF-295 CNS
[31] = tested on: OVCAR-8 ovarian
[32] = tested on: LOX IMVI melanoma
[33] = tested on: SK-MEL-5 melanoma
[34] = tested on: M14 melanoma
[35] = tested on: HS 578T breast
[36] = tested on: HOP-62 NSCLC
[37] = tested on: SF-268 CNS
[38] = tested on: MDA-N
[39] = tested on: CCRF-CEM leukemia
[40] = tested on: SN12C renal
[41] = tested on: UACC-257 melanoma
[42] = tested on: HL-60(TB) leukemia
[43] = tested on: NCI-H522 lung
[44] = tested on: NCI/ADR-RES ovarian
[45] = tested on: BT-549 breast
[46] = tested on: UACC-62 melanoma
[47] = tested on: HCT-15 colon
[48] = tested on: U251 CNS
[49] = tested on: NCI-H460 lung
[50] = tested on: SK-OV-3 ovarian
[51] = tested on: NCI-H23 lung
[52] = tested on: NCI-H226 lung
[53] = tested on: HOP-92 NSCLC
[54] = tested on: OVCAR-4 ovarian
[55] = tested on: IGROV1 ovarian
[56] = tested on: DU-145 prostate
[57] = tested on: SNB-75 CNS
[58] = tested on: SR leukemia
[59] = tested on: T-47D breast

Structure (SMILES): NC(=O)N/N=C\c1ccccc1OCc1cccc(COc2ccccc2/C=N\NC(N)=O)n1
- TGI [1]: > 100 µM
- TGI [2]: > 100 µM
- TGI [3]: 85.6 µM
- TGI [4]: > 100 µM
- TGI [5]: 47.9 µM
- TGI [6]: > 100 µM
- TGI [7]: > 100 µM
- TGI [8]: > 100 µM
- TGI [9]: > 100 µM
- TGI [10]: > 100 µM
- TGI [11]: > 100 µM
- TGI [12]: 69.5 µM
- TGI [13]: > 100 µM
- TGI [14]: > 100 µM
- TGI [15]: 31.5 µM
- TGI [16]: > 100 µM
- TGI [17]: > 100 µM
- TGI [18]: > 100 µM
- TGI [19]: > 100 µM
- TGI [20]: > 100 µM
- TGI [21]: > 100 µM
- TGI [22]: > 100 µM
- TGI [23]: 32.8 µM
- TGI [24]: > 100 µM
- TGI [25]: > 100 µM
- TGI [26]: > 100 µM
- TGI [27]: > 100 µM
- TGI [28]: > 100 µM
- TGI [29]: > 100 µM
- TGI [30]: 33.8 µM
- TGI [31]: > 100 µM
- TGI [32]: > 100 µM
- TGI [33]: > 100 µM
- TGI [34]: > 100 µM
- TGI [35]: > 100 µM
- TGI [36]: 27 µM
- TGI [37]: 88.6 µM
- TGI [38]: > 100 µM
- TGI [39]: > 100 µM
- TGI [40]: > 100 µM
- TGI [41]: > 100 µM
- TGI [42]: > 100 µM
- TGI [43]: > 100 µM
- TGI [44]: > 100 µM
- TGI [45]: 81.8 µM
- TGI [46]: 51.6 µM
- TGI [47]: > 100 µM
- TGI [48]: 18.7 µM
- TGI [49]: > 100 µM
- TGI [50]: 49.9 µM
- TGI [51]: > 100 µM
- TGI [52]: > 100 µM
- TGI [53]: 55.6 µM
- TGI [54]: > 100 µM
- TGI [55]: > 100 µM
- TGI [56]: 47.7 µM

Structure (SMILES): CC(=NC1CCCCC1)c1ccccc1O
- TGI [1]: > 100 µM
- TGI [2]: > 100 µM
- TGI [3]: > 100 µM
- TGI [4]: > 100 µM
- TGI [5]: > 100 µM
- TGI [6]: > 100 µM
- TGI [57]: > 100 µM
- TGI [8]: > 100 µM
- TGI [9]: > 100 µM
- TGI [10]: > 100 µM
- TGI [11]: > 100 µM
- TGI [12]: > 100 µM
- TGI [13]: > 100 µM
- TGI [14]: > 100 µM
- TGI [15]: > 100 µM
- TGI [16]: > 100 µM
- TGI [58]: > 100 µM
- TGI [17]: > 100 µM
- TGI [18]: > 100 µM
- TGI [19]: > 100 µM
- TGI [20]: > 100 µM
- TGI [21]: > 100 µM
- TGI [59]: > 100 µM
- TGI [22]: > 100 µM
- TGI [23]: > 100 µM
- TGI [25]: > 100 µM
- TGI [26]: > 100 µM
- TGI [27]: > 100 µM
- TGI [28]: > 100 µM
- TGI [29]: > 100 µM
- TGI [30]: > 100 µM
- TGI [31]: > 100 µM
- TGI [32]: > 100 µM
- TGI [33]: > 100 µM
- TGI [34]: > 100 µM
- TGI [36]: > 100 µM
- TGI [37]: > 100 µM
- TGI [38]: > 100 µM
- TGI [39]: > 100 µM
- TGI [40]: > 100 µM
- TGI [41]: > 100 µM
- TGI [42]: > 100 µM
- TGI [43]: > 100 µM
- TGI [44]: > 100 µM
- TGI [45]: > 100 µM
- TGI [46]: > 100 µM
- TGI [47]: > 100 µM
- TGI [48]: > 100 µM
- TGI [49]: > 100 µM
- TGI [50]: > 100 µM
- TGI [51]: > 100 µM
- TGI [52]: > 100 µM
- TGI [53]: > 100 µM
- TGI [54]: > 100 µM
- TGI [55]: > 100 µM
- TGI [56]: > 100 µM
